Measured values as given in patent US12577190B2, “Method for producing polyol-based esters of ketocarboxylic acids” (KetoLipix Therapeutics GmbH, priority 2019, dated 2026).

Experiments:
[1] = tested on: pancreatin (Panzytrat 40,000)
Method: Both media are from the company Biorelevant®, Ltd. in Great Britain. In addition, in some experiments porcine pancreas is added (Panzytrat® 40,000, Fa. Allergan).
The pancreatin is used in the form of the commercially available product Panzytrat® 40,000 from the Allergan company. The whole mixture is stirred on a hot plate at 50° C.; the course of the reaction is determined and monitored by continuously recording the acid number over time.

[2] = even if several grams are taken; cited from earlier work

Compound | cleavage by pancreatin [1] | duration of ketosis [2]
3-oxobutyric acid di-diglycerol ester | cleaved | –
3-oxobutyric acid mono-diglycerol ester | cleaved | –
3-oxobutyric acid tri-diglycerol ester | cleaved | –
CC(O)CC(=O)O (stereo not shown) [3-hydroxybutyric acid] | – | three to four
